Eleven compounds from ChEMBL document CHEMBL4350965 (J Med Chem, 2019) can be followed below.

The nature of series [1]: Inhibition of PI3Kgamma in […] RAW264.7 cells assessed as reduction in C5a-stimulated AKT phosphorylation at Ser473 residue preincubated for 30 mins followed by C5a-stimulation and measured after 5 mins. It counts as cell-based.
Series [2] has as its target T1, PI3K p110 beta/p85 alpha (Homo sapiens, UniProt P42338). In words: Inhibition of N-terminal His6-tagged recombinant full length human p110beta/untagged recombinant full length human p85alpha expressed in baculovirus infected Sf21 insect cells at 1 uM using PIP2 as substrate measured after 80 mins by transcreener fluorescence polarization assay relative to control. In general terms: Fluorescence polarisation rises when a labelled molecule tumbles more slowly, as on binding a larger partner.

Series [3] is described as follows: Stability in rat liver microsomes assessed as parent compound remaining at 1 uM measured after 30 mins in presence of NADPH generating system. (In general: Liver microsomes are a subcellular fraction often used to study metabolism.)
The target of series [4] is T2, Phosphatidylinositol 4,5-bisphosphate 3-kinase catalytic subunit delta isoform (Homo sapiens, UniProt O00329).
T2 sequence (O00329 whole entry): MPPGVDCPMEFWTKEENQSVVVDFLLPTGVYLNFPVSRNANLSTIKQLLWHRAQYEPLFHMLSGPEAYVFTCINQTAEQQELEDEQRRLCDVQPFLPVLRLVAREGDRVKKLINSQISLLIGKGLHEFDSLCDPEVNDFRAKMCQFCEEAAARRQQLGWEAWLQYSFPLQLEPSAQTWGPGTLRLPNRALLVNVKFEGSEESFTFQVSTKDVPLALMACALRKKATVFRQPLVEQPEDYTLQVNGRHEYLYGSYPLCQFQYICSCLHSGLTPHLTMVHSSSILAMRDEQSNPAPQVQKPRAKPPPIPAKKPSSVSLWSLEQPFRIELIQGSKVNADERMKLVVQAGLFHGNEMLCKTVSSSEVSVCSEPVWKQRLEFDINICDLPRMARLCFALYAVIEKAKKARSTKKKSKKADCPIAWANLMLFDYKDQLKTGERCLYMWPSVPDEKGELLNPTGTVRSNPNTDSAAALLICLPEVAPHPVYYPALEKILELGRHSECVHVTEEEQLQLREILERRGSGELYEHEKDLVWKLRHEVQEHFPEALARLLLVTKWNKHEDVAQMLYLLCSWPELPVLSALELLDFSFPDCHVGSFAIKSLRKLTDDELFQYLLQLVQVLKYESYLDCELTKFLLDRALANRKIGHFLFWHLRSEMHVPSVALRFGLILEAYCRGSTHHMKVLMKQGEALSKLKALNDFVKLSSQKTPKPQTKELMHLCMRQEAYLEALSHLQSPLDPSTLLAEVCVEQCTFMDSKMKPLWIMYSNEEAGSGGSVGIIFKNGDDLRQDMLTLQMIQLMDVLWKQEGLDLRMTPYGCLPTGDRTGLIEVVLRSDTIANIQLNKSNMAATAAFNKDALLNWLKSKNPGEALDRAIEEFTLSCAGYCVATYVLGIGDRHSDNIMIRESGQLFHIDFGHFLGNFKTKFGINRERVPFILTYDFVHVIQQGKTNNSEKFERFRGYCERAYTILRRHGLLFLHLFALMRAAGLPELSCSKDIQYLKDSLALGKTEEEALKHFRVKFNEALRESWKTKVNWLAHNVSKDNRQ
Briefly: Inhibition of PI3Kdelta in human Ramos cells assessed as reduction in antihuman IgM-stimulated AKT phosphorylation at Ser473 residue preincubated for 60 mins followed by antihuman IgM stimulation and measured after 15 mins. It counts as cell-based.

The nature of series [5]: Stability in human liver microsomes assessed as parent compound remaining at 1 uM measured after 30 mins in presence of NADPH generating system.
Series [6] in a line: Drug metabolism in human liver microsomes assessed as oxidation of pyrrolidine linker at 1 uM measured after 30 mins in presence of NADPH-generating system. The series is classed as ADME, Microsome. Particulars: 0.5 h.
Series [7] deals with Phosphatidylinositol 4,5-bisphosphate 3-kinase catalytic subunit gamma isoform (Homo sapiens, UniProt P48736).
Sequence of Phosphatidylinositol 4,5-bisphosphate 3-kinase catalytic subunit gamma isoform (P48736 whole entry, canonical isoform): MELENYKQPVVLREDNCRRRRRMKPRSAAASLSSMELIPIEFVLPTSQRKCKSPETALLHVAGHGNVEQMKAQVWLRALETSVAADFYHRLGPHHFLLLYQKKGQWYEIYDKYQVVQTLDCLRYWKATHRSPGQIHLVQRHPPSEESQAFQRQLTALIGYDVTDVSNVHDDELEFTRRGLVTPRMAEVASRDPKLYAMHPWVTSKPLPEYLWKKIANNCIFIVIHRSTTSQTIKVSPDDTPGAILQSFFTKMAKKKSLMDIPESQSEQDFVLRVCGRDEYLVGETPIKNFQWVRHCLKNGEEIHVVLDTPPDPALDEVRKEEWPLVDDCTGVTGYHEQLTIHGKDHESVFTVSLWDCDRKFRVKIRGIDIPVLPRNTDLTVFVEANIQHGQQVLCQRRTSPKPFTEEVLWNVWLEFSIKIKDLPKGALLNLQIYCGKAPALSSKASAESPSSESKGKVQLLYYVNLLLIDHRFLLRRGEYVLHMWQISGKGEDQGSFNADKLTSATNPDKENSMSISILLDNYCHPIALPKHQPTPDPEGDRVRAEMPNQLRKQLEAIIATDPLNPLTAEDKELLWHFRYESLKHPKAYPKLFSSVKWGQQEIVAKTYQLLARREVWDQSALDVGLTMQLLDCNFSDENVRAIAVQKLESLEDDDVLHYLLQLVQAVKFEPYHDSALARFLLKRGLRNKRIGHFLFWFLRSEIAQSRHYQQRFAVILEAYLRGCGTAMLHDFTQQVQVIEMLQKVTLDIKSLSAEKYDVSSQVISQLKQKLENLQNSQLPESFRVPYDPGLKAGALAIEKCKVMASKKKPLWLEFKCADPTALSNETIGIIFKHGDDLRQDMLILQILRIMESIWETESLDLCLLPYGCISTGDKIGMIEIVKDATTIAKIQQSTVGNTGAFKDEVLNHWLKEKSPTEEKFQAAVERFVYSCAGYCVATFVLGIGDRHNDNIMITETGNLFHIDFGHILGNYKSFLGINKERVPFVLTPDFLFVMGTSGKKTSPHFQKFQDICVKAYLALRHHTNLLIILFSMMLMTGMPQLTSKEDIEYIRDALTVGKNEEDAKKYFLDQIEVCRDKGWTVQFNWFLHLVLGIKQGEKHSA
Description: Inhibition of recombinant human full-length His-tagged PI3K p110gamma expressed in baculovirus expression system using PIP2 as substrate measured after 80 mins by transcreener fluorescence polarization assay
Series [8] relates to liver microsomes (Homo sapiens / Mus musculus). Briefly: Drug metabolism in human and mouse liver microsomes assessed as oxidation of pyrrolidine linker at 1 uM measured after 30 mins in presence of NADPH-generating system. Particulars: 0.5 h.
The nature of series [9]: Inhibition of PI3Kdelta in rat whole blood assessed as reduction in anti-IgD-stimulated CD86 expression on B-cells preincubated for 60 mins followed by anti-IgD stimulation and measured after overnight incubation by flow cytometry. The series is classed as tissue-based. (A flow cytometer gives signals particle by particle.)
In series [10] the target is T1, PI3K p110 beta/p85 alpha. Briefly: Inhibition of N-terminal His6-tagged recombinant full length human p110beta/untagged recombinant full length human p85alpha expressed in baculovirus infected Sf21 insect cells using PIP2 as substrate measured after 80 mins by transcreener fluorescence polarization assay.
Series [11] concerns the target T2, Phosphatidylinositol 4,5-bisphosphate 3-kinase catalytic subunit delta isoform. Briefly: Inhibition of PI3Kdelta in human whole blood assessed as reduction in anti-IgM-stimulated CD69 expression on B-cells preincubated for 60 mins followed by anti-IgM stimulation and measured after overnight incubation by flow cytometry. It counts as tissue-based.
The target is the same in series [12]. Briefly: Inhibition of PI3Kdelta in human whole blood assessed as reduction in fMLP-stimulated CD63 expression in basophils preincubated for 30 mins followed by fMLP stimulation. It counts as tissue-based.
Series [13] deals with Rattus norvegicus. Briefly: Ex vivo inhibition of anti-IgD-induced B cell activation in Wistar rat assessed as CD86 expression at 1 mg/kg, po pretreated for 2 hrs followed by anti-IgD stimulation and measured after overnight incubation by flow cytometry relative to control. It counts as functional.
Series [14] deals with Rattus norvegicus. In words: Antiarthritic activity in po dosed type2 collagen-induced Wistar rat arthritis model assessed as reduction in hind paw volume administered twice daily for 7 days and measured daily during compound dosing by plethysmometry. It counts as functional. Particulars: 168 h.
Series [15] in a line: AUC in Beagle dog at 1 mg/kg, iv by LC-MS/MS analysis. It counts as ADME, organism-based, Canis lupus familiaris. Particulars: in vivo.
Series [16] is described as follows: Volume of distribution at steady state in Beagle dog at 1 mg/kg, iv by LC-MS/MS analysis. The series is classed as ADME, organism-based, Canis lupus familiaris. Particulars: in vivo, read-out: Vdss.
A short description of series [17]: Half life in Beagle dog at 1 mg/kg, iv by LC-MS/MS analysis. The series is classed as ADME, organism-based, Canis lupus familiaris. Particulars: in vivo.
The nature of series [18]: Clearance in Beagle dog at 1 mg/kg, iv by LC-MS/MS analysis. The series is classed as ADME, organism-based, Canis lupus familiaris. The settings on record: in vivo.
For series [19], the system named is Rattus norvegicus. In words: Inhibition of KC/GRO-induced neutrophil migration in Wistar rat air pouch model at 10 mg/kg, po pretreated for 0.5 hrs followed by KC/GRO-stimulation and measured after 4 hrs by flow cytometry relative to control. It counts as functional.
Series [20] in a line: Cmax in Beagle dog at 5 mg/kg, po by LC-MS/MS analysis. On the set-up: dose 5 mg/kg, route oral. Particulars: in vivo. It counts as ADME, organism-based, Canis lupus familiaris.
The nature of series [21]: AUC in Beagle dog at 5 mg/kg, po by LC-MS/MS analysis. The series is classed as ADME, organism-based, Canis lupus familiaris. Particulars: in vivo.
Series [22] is described as follows: Oral bioavailability in Sprague-Dawley rat at 10 mg/kg by LC-MS/MS analysis. Particulars: in vivo. The series is classed as ADME, organism-based.
A short description of series [23]: Cmax in Sprague-Dawley rat at 10 mg/kg, po by LC-MS/MS analysis. Particulars: in vivo. The series is classed as ADME, organism-based. Set-up: dose 10 mg/kg, route oral.
The nature of series [24]: AUC in Sprague-Dawley rat at 10 mg/kg, po by LC-MS/MS analysis. The series is classed as ADME, organism-based. The settings on record: in vivo.
Series [25] is described as follows: Clearance in Sprague-Dawley rat at 2.5 mg/kg, iv by LC-MS/MS analysis. It counts as ADME, organism-based. The settings on record: in vivo.
The nature of series [26]: Half life in Sprague-Dawley rat at 2.5 mg/kg, iv by LC-MS/MS analysis. It counts as ADME, organism-based. The settings on record: in vivo.
A short description of series [27]: AUC in Sprague-Dawley rat at 2.5 mg/kg, iv by LC-MS/MS analysis. The series is classed as ADME, organism-based. The settings on record: in vivo.
The nature of series [28]: Oral bioavailability in Beagle dog at 5 mg/kg by LC-MS/MS analysis. It counts as ADME, organism-based, Canis lupus familiaris. The settings on record: in vivo.
The target in series [29] is PI3-kinase p110-delta/p85-alpha (Homo sapiens, UniProt O00329). Briefly: biochemical.
Sequence of PI3-kinase p110-delta/p85-alpha (P27986 whole entry, one chain of several): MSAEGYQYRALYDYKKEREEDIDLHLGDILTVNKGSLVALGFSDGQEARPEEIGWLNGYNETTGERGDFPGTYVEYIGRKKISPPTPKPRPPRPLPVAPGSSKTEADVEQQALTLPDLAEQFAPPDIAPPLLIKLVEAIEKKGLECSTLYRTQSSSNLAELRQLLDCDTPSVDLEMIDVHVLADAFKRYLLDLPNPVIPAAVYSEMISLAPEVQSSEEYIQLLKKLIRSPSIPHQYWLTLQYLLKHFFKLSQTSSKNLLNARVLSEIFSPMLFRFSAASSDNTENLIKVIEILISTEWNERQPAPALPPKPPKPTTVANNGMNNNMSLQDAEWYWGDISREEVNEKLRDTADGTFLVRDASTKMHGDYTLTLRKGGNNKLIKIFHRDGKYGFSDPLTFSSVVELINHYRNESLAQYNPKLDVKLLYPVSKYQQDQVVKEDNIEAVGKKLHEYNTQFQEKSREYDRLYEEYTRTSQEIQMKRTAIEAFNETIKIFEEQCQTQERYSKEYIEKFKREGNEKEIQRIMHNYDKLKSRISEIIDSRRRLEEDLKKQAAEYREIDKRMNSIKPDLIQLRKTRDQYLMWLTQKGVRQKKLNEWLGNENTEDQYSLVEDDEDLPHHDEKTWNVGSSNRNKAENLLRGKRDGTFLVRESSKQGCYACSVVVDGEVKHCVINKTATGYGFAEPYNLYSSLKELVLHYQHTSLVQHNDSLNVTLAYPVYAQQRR
Description: Inhibition of N-terminal His6-tagged recombinant full length human p110delta/untagged recombinant full length human p85alpha expressed in baculovirus infected Sf21 insect cells using PIP2 as substrate measured after 80 mins by transcreener fluorescence polarization assay
For series [30], the target named is PI3-kinase p110-alpha/p85-alpha (Homo sapiens, UniProt P42336). Briefly: Inhibition of recombinant human full-length N-terminal His-tagged PI3K p110alpha/p85alpha expressed in baculovirus expression system at 1 uM using PIP2 as substrate measured after 80 mins by transcreener fluorescence polarization assay relative to control.
Sequence of PI3-kinase p110-alpha/p85-alpha (P27986 whole entry): as the sequence (P27986 whole entry, one chain of several) above
Sequence of PI3-kinase p110-alpha/p85-alpha (P42336 whole entry): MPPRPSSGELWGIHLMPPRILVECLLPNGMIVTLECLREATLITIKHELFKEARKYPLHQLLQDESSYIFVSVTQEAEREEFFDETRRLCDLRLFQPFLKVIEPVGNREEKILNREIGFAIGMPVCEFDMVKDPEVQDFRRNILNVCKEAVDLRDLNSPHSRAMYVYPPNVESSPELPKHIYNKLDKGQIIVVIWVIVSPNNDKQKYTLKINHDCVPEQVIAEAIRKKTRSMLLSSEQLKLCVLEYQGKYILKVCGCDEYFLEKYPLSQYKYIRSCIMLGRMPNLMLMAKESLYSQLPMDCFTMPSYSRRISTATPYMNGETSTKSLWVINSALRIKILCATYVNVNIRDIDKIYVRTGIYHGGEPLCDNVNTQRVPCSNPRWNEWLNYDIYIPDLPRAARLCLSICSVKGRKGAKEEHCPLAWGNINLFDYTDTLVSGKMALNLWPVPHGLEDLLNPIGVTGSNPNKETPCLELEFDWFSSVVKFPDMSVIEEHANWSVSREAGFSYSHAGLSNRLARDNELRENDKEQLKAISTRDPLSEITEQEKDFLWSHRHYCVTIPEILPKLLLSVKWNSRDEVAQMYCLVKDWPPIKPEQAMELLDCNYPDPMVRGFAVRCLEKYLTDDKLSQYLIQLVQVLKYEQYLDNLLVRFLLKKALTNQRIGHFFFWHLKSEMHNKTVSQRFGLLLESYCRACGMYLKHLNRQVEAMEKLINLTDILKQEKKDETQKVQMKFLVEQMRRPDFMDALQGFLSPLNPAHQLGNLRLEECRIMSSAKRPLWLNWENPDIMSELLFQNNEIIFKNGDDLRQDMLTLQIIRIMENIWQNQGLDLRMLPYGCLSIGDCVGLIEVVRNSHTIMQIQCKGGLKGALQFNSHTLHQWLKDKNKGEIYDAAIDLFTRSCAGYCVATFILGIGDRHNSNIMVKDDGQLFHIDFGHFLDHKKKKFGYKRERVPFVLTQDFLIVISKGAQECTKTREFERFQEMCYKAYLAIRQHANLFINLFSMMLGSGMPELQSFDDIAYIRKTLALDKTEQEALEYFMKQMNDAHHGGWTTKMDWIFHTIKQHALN

T1 sequence (P27986 whole entry): as the sequence (P27986 whole entry, one chain of several) above
T1 sequence (P42338 whole entry): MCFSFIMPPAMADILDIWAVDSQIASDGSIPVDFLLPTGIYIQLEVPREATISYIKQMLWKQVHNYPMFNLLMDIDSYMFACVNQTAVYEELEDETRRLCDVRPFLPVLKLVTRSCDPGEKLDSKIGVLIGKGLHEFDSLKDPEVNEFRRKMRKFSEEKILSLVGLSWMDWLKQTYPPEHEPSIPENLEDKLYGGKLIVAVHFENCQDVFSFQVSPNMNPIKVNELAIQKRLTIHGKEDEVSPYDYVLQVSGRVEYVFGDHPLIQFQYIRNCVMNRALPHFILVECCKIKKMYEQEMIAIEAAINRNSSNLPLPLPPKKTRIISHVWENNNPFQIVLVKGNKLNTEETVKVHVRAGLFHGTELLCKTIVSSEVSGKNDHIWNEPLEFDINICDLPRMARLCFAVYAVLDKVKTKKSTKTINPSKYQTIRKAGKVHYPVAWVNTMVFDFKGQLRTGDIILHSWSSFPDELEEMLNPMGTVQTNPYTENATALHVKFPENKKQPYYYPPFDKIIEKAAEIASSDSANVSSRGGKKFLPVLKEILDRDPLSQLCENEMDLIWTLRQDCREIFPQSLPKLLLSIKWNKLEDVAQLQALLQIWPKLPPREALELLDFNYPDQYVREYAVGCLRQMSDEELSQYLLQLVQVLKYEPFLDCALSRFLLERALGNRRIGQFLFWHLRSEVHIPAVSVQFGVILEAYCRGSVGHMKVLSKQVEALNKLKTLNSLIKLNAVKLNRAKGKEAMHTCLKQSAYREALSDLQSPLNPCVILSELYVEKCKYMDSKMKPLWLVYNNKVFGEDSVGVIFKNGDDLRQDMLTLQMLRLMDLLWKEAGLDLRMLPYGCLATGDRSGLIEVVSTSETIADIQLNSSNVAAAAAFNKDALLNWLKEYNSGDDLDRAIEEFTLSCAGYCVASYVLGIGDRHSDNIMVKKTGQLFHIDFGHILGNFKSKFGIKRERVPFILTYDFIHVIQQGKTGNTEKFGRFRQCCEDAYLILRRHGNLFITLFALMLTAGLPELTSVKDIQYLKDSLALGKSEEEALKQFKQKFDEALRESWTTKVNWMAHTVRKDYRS

`CC[C@H](Nc1ncnc2[nH]cnc12)c1nc2cccc(F)c2c(=O)n1-c1ccccc1` [IDELALISIB]: in series [1], the IC50 (in general, the concentration needed to halve the response being measured) was 337 nM.

In the case of `O=c1c2c(F)ccn2nc([C@@H]2CCCN2c2ncnc3[nH]cnc23)n1-c1ccccc1`, the inhibition (in general, the share of the control response that was lost under treatment) at 1 µM at PI3K p110 beta/p85 alpha [2] was found to be 52.9%. Besides, the amount remaining (in general, what is left of the initial amount, in per cent) at 0.5 h, 1 µM in [3] turned out to be 51.8%.

For the compound `N#Cc1cnc(N)nc1N1CCC[C@H]1c1nn2ccc(Cl)c2c(=O)n1-c1ccccc1`, the 50% inhibitory concentration (IC50) in series [1] is 22 nM; in series [4], 3 nM. Further, the share remaining at 0.5 h, 1 µM in series [3] is 23.5%.

On to `N#Cc1c[nH]c2ncnc(N3CCC[C@H]3c3nn4cccc4c(=O)n3-c3ccccc3)c12`, for which the inhibition at 1 µM on PI3K p110 beta/p85 alpha [2] was determined as 47.7%. Further, the IC50 worked out at 40 nM in series [1], 3 nM in series [4] and 19 nM in series [7]. Besides, the amount remaining at 0.5 h, 1 µM in series [3] came to 19.1%; in series [5], 2.8%. Besides, the Drug metabolism result in series [6] and in series [8] was “Metabolite_Detected” throughout.

For the compound `CC(=O)c1c[nH]c2ncnc(N3CCC[C@H]3c3nn4ccc(F)c4c(=O)n3-c3ccccc3)c12`, the half-maximal inhibitory concentration (IC50) worked out at 42 nM in [1] and 5 nM in series [4]. Further, the share remaining at 0.5 h, 1 µM in series [3] is 26.1%; in series [5], 25.1%.

With `O=c1c2cccn2nc([C@@H]2CCCN2c2ncnc3[nH]cnc23)n1-c1ccccc1`, at PI3K p110 beta/p85 alpha [2], the inhibition at 1 µM worked out at 17.4%. Moreover, the amount remaining at 0.5 h, 1 µM in series [3] was found to be 44.3%.

Regarding `C[C@H](Nc1ncnc2nc[nH]c12)c1cc2cccc(Cl)c2c(=O)n1-c1ccccc1` [DUVELISIB], the IC50 in series [1] turned out to be 25 nM; in series [9], 2 nM.

In the case of `CC(=O)c1cnc(N)nc1N1CC[C@H]1c1nn2ccc(Cl)c2c(=O)n1-c1ccccc1`, the IC50 on PI3K p110 beta/p85 alpha [10] stood at 590 nM; in series [11], 63 nM; in [9], 44 nM; in series [12], 337 nM; in series [29], 5 nM. Also, the inhibition in vivo (in general, the relative decrease from the control value, in per cent) at 1 mg/kg in the series on Rattus norvegicus [13] stood at 88.3%. Also, the ED50 (commonly the dose that gives a 50% effect, or the effect in half of the subjects) with Rattus norvegicus [14] is 0.25 mg/kg. Moreover, the AUC (in general, concentration integrated over time) in [15] turned out to be 3260 ng·h/mL; in series [21] it was 13100 ng·h/mL; in series [24] it was 14300 ng·h/mL; in series [27], 3270 ng·h/mL. In [16], the Vd was determined as 1.7 L/kg. The values for the half-life in series [17] and in series [26] were 6.3 h and 1.5 h, respectively. In addition, the results for the clearance in series [18] and in series [25] were 5.4 mL/min/kg and 12.7 mL/min/kg, respectively. The inhibition in vivo at 10 mg/kg in the series on Rattus norvegicus [19] is 87.9%. Besides, the values for the maximum concentration (Cmax) in series [20] and in series [23] were 2530 ng/mL and 2730 ng/mL, respectively. Also, the bioavailability in series [22] turned out to be 108%; in series [28], 82.4%.

Turning to `O=c1c2c(Cl)ccn2nc([C@@H]2C[C@H](F)CN2c2ncnc3[nH]cnc23)n1-c1ccccc1`, the IC50 in series [1] was determined as 20 nM; in series [4], 1 nM. The fraction remaining at 0.5 h, 1 µM in series [3] was determined as 43.8%.

With `CC(=O)c1c[nH]c2ncnc(N3CCC[C@H]3c3nn4ccc(Cl)c4c(=O)n3-c3cccc(F)c3)c12`, the IC50 in series [1] came to 7 nM; in series [4] it was 3 nM. The fraction remaining at 0.5 h, 1 µM in series [5] is 11.7%.

As to `N#Cc1cnc(N)nc1N1CC[C@H]1c1nn2ccc(Cl)c2c(=O)n1-c1ccccc1`, the values for the inhibition at 1 µM (at PI3K p110 beta/p85 alpha [2]; in series [30]) were 37% and below 50%, respectively. Further, the results for the IC50 in [1] and in series [4] were 241 nM and 16 nM, respectively. The fraction remaining at 0.5 h, 1 µM turned out to be 77.5% in series [3] and 71.2% in [5].
